Data as given in patent publication US11485726B2, “Compound for inhibiting and degrading tyrosine protein kinase ALK” (SHANGHAI MEIZER PHARMACEUTICALS CO., LTD., priority 2017, dated 2022).

Experiments:
[1] = system: SU-DHL-1 cells; assay: Inhibition of proliferation of SU-DHL-1 cells by CTG assay; type: cell-based; details: Homo sapiens, compound 100 μM, 72 hours
Protocol: Example 7 Testing the Inhibitory Effect of Formula Compound on the Proliferation of SU-DHL-1 Cells by CTG Assay
The inhibitory effect of the compound on the proliferation of SU-DHL-1 cells ([…]) was determined by the […] method in vitro. The Cells were cultured and the compound was prepared referring to the method of […], and the culture time after administration was 72 hours. Subsequently, an appropriate amount of CTG reagent was added, the luminescence value was measured, and the inhibition rate was calculated.

[2] = target: T1, ALK kinase (Homo sapiens, UniProt Q9UM73); assay: ALK protein degradation activity by Western blot in H2228 cells; type: cell-based; set-up: H2228 cell lines (human non-small cell line lung cancer cells, available from ATCC); host or cells: H2228 (human non-small cell lung cancer cells); the other entry of the earlier key: EML4 (Q9HC35, Echinoderm microtubule-associated protein-like 4); details: NCI-H2228, compound 1 μM, treatment for 24 hours, degradation rate by Western blot
Target sequence in this assay (Q9UM73 with tags, fused parts or gaps): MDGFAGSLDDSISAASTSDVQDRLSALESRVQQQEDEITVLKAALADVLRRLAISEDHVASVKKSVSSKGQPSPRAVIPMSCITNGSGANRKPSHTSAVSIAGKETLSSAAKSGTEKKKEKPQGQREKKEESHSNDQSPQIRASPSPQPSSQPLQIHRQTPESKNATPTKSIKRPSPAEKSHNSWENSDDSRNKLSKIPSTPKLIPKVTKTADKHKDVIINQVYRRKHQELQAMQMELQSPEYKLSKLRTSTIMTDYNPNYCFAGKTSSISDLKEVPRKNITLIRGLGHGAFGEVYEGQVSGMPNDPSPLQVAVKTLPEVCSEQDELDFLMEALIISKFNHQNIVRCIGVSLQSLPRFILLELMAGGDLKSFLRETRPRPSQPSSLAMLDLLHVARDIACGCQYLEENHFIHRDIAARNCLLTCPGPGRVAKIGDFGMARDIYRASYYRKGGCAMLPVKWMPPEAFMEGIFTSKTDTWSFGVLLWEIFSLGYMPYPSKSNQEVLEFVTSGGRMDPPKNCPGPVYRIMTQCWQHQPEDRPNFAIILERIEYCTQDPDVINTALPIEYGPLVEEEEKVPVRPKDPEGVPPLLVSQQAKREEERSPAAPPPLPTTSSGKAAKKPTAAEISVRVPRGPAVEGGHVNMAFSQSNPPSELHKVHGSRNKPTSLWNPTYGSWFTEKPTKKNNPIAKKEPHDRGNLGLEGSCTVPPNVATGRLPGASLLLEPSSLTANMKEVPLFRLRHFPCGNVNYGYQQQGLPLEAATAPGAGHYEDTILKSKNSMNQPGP

[3] = target: T1, ALK kinase; assay: ALK inhibition activity by Caliper assay; type: biochemical; details: compound 100 nM
Protocol: Example 5 Testing the ALK Inhibition Activity of Compound by Caliper Assay
The experimental steps were as follows:
Preparation of 1×kinase reaction buffer (50 mM HEPES, PH 7.5; 0.0015% Brij-35) and kinase reaction termination solution (100 mM HEPES, PH 7.5; 0.0015% Brij-35; 0.2% Coating Reagent; 50 mM EDTA);
Preparation of experimental samples: 100 μl of 5 μM sample solution (dissolved in 100% DMSO) was added to a 96-well plate to obtain a 50×sample solution. As controls, two wells containing only 100 μL of 100% DMSO were set on the same plate. One was served as a control without samples and the other was served as a control without enzymes. 10 μL of sample and 90 μL, of 1×kinase reaction buffer were added to a 96-well plate as a transfer plate. The transfer plate was shaken for 10 minutes.
Preparation of the test plate: taking 5 μL of each of the prepared samples from the 96-well transfer plate into a 384-well plate.
Kinase reaction: to 5 μL of 5×compound solution (dissolved in DMSO, diluted 10 times with water) was added 10 μL of 2.5×ALK kinase solution (kinase was diluted with 1×kinase reaction buffer), which was incubated at room temperature for 10 min, and then 10 μL of 2.5×substrate peptide solution (FAM-labeled peptide and ATP were diluted with 1×kinase reaction buffer) was added.
Termination of the kinase reaction: 25 μL of kinase reaction termination solution was added after being reacted at 28° C. for a period of time.
The fluorescence (F) was tested on a Caliper and data was collected.
The inhibition rate of kinase activity was calculated: the percent inhibition rate of kinase activity=(FDMSO control−Fsample)/(FDMSO control−Fnegative control)×100, with DMSO as the solution control, and no kinase as the negative control.
Target sequence in this assay (Q9UM73 19-1620): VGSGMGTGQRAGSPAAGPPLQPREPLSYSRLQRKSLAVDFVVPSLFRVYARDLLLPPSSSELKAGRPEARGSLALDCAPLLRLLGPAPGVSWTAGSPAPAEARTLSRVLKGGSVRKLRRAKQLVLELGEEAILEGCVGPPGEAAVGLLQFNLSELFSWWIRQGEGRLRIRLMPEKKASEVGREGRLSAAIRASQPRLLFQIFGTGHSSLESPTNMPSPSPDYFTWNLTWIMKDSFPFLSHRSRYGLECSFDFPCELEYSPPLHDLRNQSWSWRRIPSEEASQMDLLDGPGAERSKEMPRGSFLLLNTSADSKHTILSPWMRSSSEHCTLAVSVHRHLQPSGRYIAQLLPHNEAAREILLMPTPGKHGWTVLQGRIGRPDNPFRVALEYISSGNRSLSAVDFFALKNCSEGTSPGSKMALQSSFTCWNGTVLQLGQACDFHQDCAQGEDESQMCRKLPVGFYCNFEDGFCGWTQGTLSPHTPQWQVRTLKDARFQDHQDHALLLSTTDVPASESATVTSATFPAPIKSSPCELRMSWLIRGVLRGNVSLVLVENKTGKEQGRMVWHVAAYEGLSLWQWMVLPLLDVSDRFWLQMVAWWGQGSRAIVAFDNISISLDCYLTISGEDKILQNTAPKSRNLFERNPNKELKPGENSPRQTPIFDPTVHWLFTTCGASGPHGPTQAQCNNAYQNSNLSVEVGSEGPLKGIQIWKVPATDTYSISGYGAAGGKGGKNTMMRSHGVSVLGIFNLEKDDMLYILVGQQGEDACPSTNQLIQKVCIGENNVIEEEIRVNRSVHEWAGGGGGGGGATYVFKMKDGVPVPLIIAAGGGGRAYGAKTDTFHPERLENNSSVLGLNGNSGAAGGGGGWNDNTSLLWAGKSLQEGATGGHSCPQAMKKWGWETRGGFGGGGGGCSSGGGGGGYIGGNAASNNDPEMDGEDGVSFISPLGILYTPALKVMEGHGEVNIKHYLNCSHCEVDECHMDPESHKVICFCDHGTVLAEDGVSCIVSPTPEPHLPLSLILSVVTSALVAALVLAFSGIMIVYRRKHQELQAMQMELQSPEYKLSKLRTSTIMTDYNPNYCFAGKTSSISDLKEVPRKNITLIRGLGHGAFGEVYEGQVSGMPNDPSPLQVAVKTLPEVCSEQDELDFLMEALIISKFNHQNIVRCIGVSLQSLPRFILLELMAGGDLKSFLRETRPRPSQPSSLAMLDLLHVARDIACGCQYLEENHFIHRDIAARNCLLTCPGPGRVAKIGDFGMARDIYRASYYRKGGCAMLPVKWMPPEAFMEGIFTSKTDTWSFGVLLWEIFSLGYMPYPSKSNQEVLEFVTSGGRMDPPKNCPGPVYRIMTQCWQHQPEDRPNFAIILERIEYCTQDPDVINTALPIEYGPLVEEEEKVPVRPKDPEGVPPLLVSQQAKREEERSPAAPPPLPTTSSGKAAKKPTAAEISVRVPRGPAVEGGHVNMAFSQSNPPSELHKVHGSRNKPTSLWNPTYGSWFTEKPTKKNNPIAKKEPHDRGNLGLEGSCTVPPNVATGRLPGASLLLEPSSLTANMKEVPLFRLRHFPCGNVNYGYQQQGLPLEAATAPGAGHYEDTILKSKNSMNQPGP

Row | inhibition at 1 µM [2] [%] | inhibition at 0.1 µM [3] [%] | Compound | inhibition at 100 µM [1] [%]
1 | > 90 | 98 | Cc1cc(Nc2ncc(Cl)c(Nc3ccccc3S(=O)(=O)C(C)C)n2)c(OC(C)C)cc1C1CCN(CCCCCC(=O)Nc2cccc3c2C(=O)N(C2CCC(=O)NC2=O)C3=O)CC1 (centres unmarked) [Compound 3] | 72
2 | > 90 | 97 | Cc1cc(Nc2ncc(Cl)c(Nc3ccccc3S(=O)(=O)C(C)C)n2)c(OC(C)C)cc1C1CCN(CCOCCOCCOc2cccc3c2C(=O)N(C2CCC(=O)NC2=O)C3=O)CC1 (centres unmarked) [Compound 7] | 98
3 | > 90 | 99 | Cc1cc(Nc2ncc(Cl)c(Nc3ccccc3S(=O)(=O)C(C)C)n2)c(OC(C)C)cc1C1CCN(C(=O)COCCOCCNc2cccc3c2C(=O)N(C2CCC(=O)NC2=O)C3=O)CC1 (centres unmarked) [Compound 10] | –
4 | > 90 | 69 | Cc1cc(Nc2ncc(Cl)c(Nc3ccccc3S(=O)(=O)C(C)C)n2)c(OC(C)C)cc1C1CCN(S(=O)(=O)CCCCCOc2cccc3c2C(=O)N(C2CCC(=O)NC2=O)C3=O)CC1 (centres unmarked) [Compound 13] | –
5 | > 90 | 89 | Cc1cc(Nc2ncc(Cl)c(Nc3ccccc3S(=O)(=O)C(C)C)n2)c(OC(C)C)cc1C1CCN(CCOCCOCCOCCNc2cccc3c2C(=O)N(C2CCC(=O)NC2=O)C3=O)CC1 (centres unmarked) [Compound 14] | 99
6 | > 90 | 95 | Cc1cc(Nc2ncc(Cl)c(Nc3ccccc3S(=O)(=O)C(C)C)n2)c(OC(C)C)cc1C1CCN(CCOCCOCCOCCOc2cccc3c2C(=O)N(C2CCC(=O)NC2=O)C3=O)CC1 (centres unmarked) [Compound 15] | 100
7 | > 90 | – | Cc1cc(Nc2ncc(Cl)c(Nc3ccccc3S(=O)(=O)C(C)C)n2)c(OC(C)C)cc1C1CCN(CCCCC(=O)Nc2cccc3c2C(=O)N(C2CCC(=O)NC2=O)C3=O)CC1 (centres unmarked) [Compound 16] | –
8 | > 90 | – | Cc1cc(Nc2ncc(Cl)c(Nc3ccccc3S(=O)(=O)C(C)C)n2)c(OC(C)C)cc1C1CCN(CCCC(=O)Nc2cccc3c2C(=O)N(C2CCC(=O)NC2=O)C3=O)CC1 (centres unmarked) [Compound 17] | –
9 | > 90 | – | Cc1cc(Nc2ncc(Cl)c(Nc3ccccc3S(=O)(=O)C(C)C)n2)c(OC(C)C)cc1C1CCN(CCC(=O)Nc2cccc3c2C(=O)N(C2CCC(=O)NC2=O)C3=O)CC1 (centres unmarked) [Compound 18] | –
10 | > 90 | – | Cc1cc(Nc2ncc(Cl)c(Nc3ccccc3S(=O)(=O)C(C)C)n2)c(OC(C)C)cc1C1CCN(CCOCCOCCC(=O)Nc2cccc3c2C(=O)N(C2CCC(=O)NC2=O)C3=O)CC1 (centres unmarked) [Compound 19] | –
11 | > 90 | – | Cc1cc(Nc2ncc(Cl)c(Nc3ccccc3S(=O)(=O)C(C)C)n2)c(OC(C)C)cc1C1CCN(CCOCCOCCOCCC(=O)Nc2cccc3c2C(=O)N(C2CCC(=O)NC2=O)C3=O)CC1 (centres unmarked) [Compound 20] | –
12 | 50 to 90 | – | Cc1cc(Nc2ncc(Cl)c(Nc3ccccc3S(=O)(=O)C(C)C)n2)c(OC(C)C)cc1C1CCN(CCOCCOc2cccc3c2C(=O)N(C2CCC(=O)NC2=O)C3=O)CC1 (centres unmarked) [Compound 21] | –
13 | 50 to 90 | – | Cc1cc(Nc2ncc(Cl)c(Nc3ccccc3S(=O)(=O)C(C)C)n2)c(OC(C)C)cc1C1CCN(CCCCCOc2cccc3c2C(=O)N(C2CCC(=O)NC2=O)C3=O)CC1 (centres unmarked) [Compound 22] | –
14 | 50 to 90 | – | Cc1cc(Nc2ncc(Cl)c(Nc3ccccc3S(=O)(=O)C(C)C)n2)c(OC(C)C)cc1C1CCN(CCCCOc2cccc3c2C(=O)N(C2CCC(=O)NC2=O)C3=O)CC1 (centres unmarked) [Compound 23] | –
15 | 50 to 90 | – | Cc1cc(Nc2ncc(Cl)c(Nc3ccccc3S(=O)(=O)C(C)C)n2)c(OC(C)C)cc1C1CCN(CCCOc2cccc3c2C(=O)N(C2CCC(=O)NC2=O)C3=O)CC1 (centres unmarked) [Compound 24] | –
16 | > 90 | – | Cc1cc(Nc2ncc(Cl)c(Nc3ccccc3S(=O)(=O)C(C)C)n2)c(OC(C)C)cc1C1CCN(CCOCCOCCOCCOCCOc2cccc3c2C(=O)N(C2CCC(=O)NC2=O)C3=O)CC1 (centres unmarked) [Compound 25] | –
17 | 50 to 90 | – | Cc1cc(Nc2ncc(Cl)c(Nc3ccccc3S(=O)(=O)C(C)C)n2)c(OC(C)C)cc1C1CCN(CCOCCOCCOCCOCCOCCOc2cccc3c2C(=O)N(C2CCC(=O)NC2=O)C3=O)CC1 (centres unmarked) [Compound 26] | –
18 | > 90 | – | Cc1cc(Nc2ncc(Cl)c(Nc3ccccc3S(=O)(=O)C(C)C)n2)c(OC(C)C)cc1C1CCN(CCOCCNc2cccc3c2C(=O)N(C2CCC(=O)NC2=O)C3=O)CC1 (centres unmarked) [Compound 27] | –

Row | inhibition at 1 µM [2] [%] | inhibition at 0.1 µM [3] [%] | Compound | inhibition at 100 µM [1] [%]
19 | > 90 | – | Cc1cc(Nc2ncc(Cl)c(Nc3ccccc3S(=O)(=O)C(C)C)n2)c(OC(C)C)cc1C1CCN(CCCCCNc2cccc3c2C(=O)N(C2CCC(=O)NC2=O)C3=O)CC1 (centres unmarked) [Compound 28] | –
20 | 50 to 90 | – | Cc1cc(Nc2ncc(Cl)c(Nc3ccccc3S(=O)(=O)C(C)C)n2)c(OC(C)C)cc1C1CCN(CCCCNc2cccc3c2C(=O)N(C2CCC(=O)NC2=O)C3=O)CC1 (centres unmarked) [Compound 29] | –
21 | 50 to 90 | – | Cc1cc(Nc2ncc(Cl)c(Nc3ccccc3S(=O)(=O)C(C)C)n2)c(OC(C)C)cc1C1CCN(CCCNc2cccc3c2C(=O)N(C2CCC(=O)NC2=O)C3=O)CC1 (centres unmarked) [Compound 30] | –
22 | > 90 | – | Cc1cc(Nc2ncc(Cl)c(Nc3ccccc3S(=O)(=O)C(C)C)n2)c(OC(C)C)cc1C1CCN(CCOCCOCCOCCOCCNc2cccc3c2C(=O)N(C2CCC(=O)NC2=O)C3=O)CC1 (centres unmarked) [Compound 31] | –
23 | 50 to 90 | – | Cc1cc(Nc2ncc(Cl)c(Nc3ccccc3S(=O)(=O)C(C)C)n2)c(OC(C)C)cc1C1CCN(CCOCCOCCOCCOCCOCCNc2cccc3c2C(=O)N(C2CCC(=O)NC2=O)C3=O)CC1 (centres unmarked) [Compound 32] | –
24 | > 90 | – | Cc1cc(Nc2ncc(Cl)c(Nc3ccccc3S(=O)(=O)C(C)C)n2)c(OC(C)C)cc1C1CCN(CC(=O)NCCNc2cccc3c2C(=O)N(C2CCC(=O)NC2=O)C3=O)CC1 (centres unmarked) [Compound 33] | –
25 | > 90 | – | Cc1cc(Nc2ncc(Cl)c(Nc3ccccc3S(=O)(=O)C(C)C)n2)c(OC(C)C)cc1C1CCN(CC(=O)NCCOCCOCCNc2cccc3c2C(=O)N(C2CCC(=O)NC2=O)C3=O)CC1 (centres unmarked) [Compound 35] | –
26 | > 90 | – | Cc1cc(Nc2ncc(Cl)c(Nc3ccccc3S(=O)(=O)C(C)C)n2)c(OC(C)C)cc1C1CCN(CC(=O)NCCOCCOCCOCCNc2cccc3c2C(=O)N(C2CCC(=O)NC2=O)C3=O)CC1 (centres unmarked) [Compound 36] | –
27 | 50 to 90 | – | Cc1cc(Nc2ncc(Cl)c(Nc3ccccc3S(=O)(=O)C(C)C)n2)c(OC(C)C)cc1C1CCN(CC(=O)NCCOCCOCCOCCOCCNc2cccc3c2C(=O)N(C2CCC(=O)NC2=O)C3=O)CC1 (centres unmarked) [Compound 37] | –
28 | 50 to 90 | – | Cc1cc(Nc2ncc(Cl)c(Nc3ccccc3S(=O)(=O)C(C)C)n2)c(OC(C)C)cc1C1CCN(CC(=O)NCCOCCOCCOCCOCCOCCNc2cccc3c2C(=O)N(C2CCC(=O)NC2=O)C3=O)CC1 (centres unmarked) [Compound 38] | –
29 | > 90 | – | Cc1cc(Nc2ncc(Cl)c(Nc3ccccc3S(=O)(=O)C(C)C)n2)c(OC(C)C)cc1C1CCN(CC(=O)NCCOc2cccc3c2C(=O)N(C2CCC(=O)NC2=O)C3=O)CC1 (centres unmarked) [Compound 39] | –
30 | > 90 | – | Cc1cc(Nc2ncc(Cl)c(Nc3ccccc3S(=O)(=O)C(C)C)n2)c(OC(C)C)cc1C1CCN(CC(=O)NCCOCCOc2cccc3c2C(=O)N(C2CCC(=O)NC2=O)C3=O)CC1 (centres unmarked) [Compound 40] | –
31 | > 90 | – | Cc1cc(Nc2ncc(Cl)c(Nc3ccccc3S(=O)(=O)C(C)C)n2)c(OC(C)C)cc1C1CCN(CC(=O)NCCOCCOCCOc2cccc3c2C(=O)N(C2CCC(=O)NC2=O)C3=O)CC1 (centres unmarked) [Compound 41] | –
32 | > 90 | – | Cc1cc(Nc2ncc(Cl)c(Nc3ccccc3S(=O)(=O)C(C)C)n2)c(OC(C)C)cc1C1CCN(CC(=O)NCCOCCOCCOCCOc2cccc3c2C(=O)N(C2CCC(=O)NC2=O)C3=O)CC1 (centres unmarked) [Compound 42] | –
33 | 50 to 90 | – | Cc1cc(Nc2ncc(Cl)c(Nc3ccccc3S(=O)(=O)C(C)C)n2)c(OC(C)C)cc1C1CCN(CC(=O)NCCOCCOCCOCCOCCOc2cccc3c2C(=O)N(C2CCC(=O)NC2=O)C3=O)CC1 (centres unmarked) [Compound 43] | –
34 | 50 to 90 | – | Cc1cc(Nc2ncc(Cl)c(Nc3ccccc3S(=O)(=O)C(C)C)n2)c(OC(C)C)cc1C1CCN(CC(=O)NCCOCCOCCOCCOCCOCCOc2cccc3c2C(=O)N(C2CCC(=O)NC2=O)C3=O)CC1 (centres unmarked) [Compound 44] | –
35 | > 90 | 98 | Cc1cc(Nc2ncc(Cl)c(Nc3ccccc3S(=O)(=O)C(C)C)n2)c(OC(C)C)cc1C1CCN(CCOCCOCCNc2cccc3c2C(=O)N(C2CCC(=O)NC2=O)C3=O)CC1 (centres unmarked) [Compound 45] | 97
